# According to patent US7932255B2, “2-aminocarbonyl substituted piperazine or diaza-cyclic compounds as apoptosis protein inhibitors (lap) modulators” (Novartis AG, priority 2006, dated 2011):
# Like-named read-outs stand apart in the source and are kept apart here.
# Biological target: T1, XIAP (Homo sapiens, UniProt P98170)
# T1 construct: GST
# Assay: Disruption of the Smac peptide-(XIAP)BIR3 protein-protein interaction (Tables 2 and 3)
# Format: binding
# Description: IC50 values for Series A compounds for XIAP. An assay capable of measuring disruption of the Smac peptide-(XIAP)BIR3 protein-protein interaction is established in the art as described in Example 2. In this assay IAP Inhibitor compounds compete with an immobilized Smac peptide for occupancy of the BIR3 binding pocket of XIAP. The rationale for this strategy results from the mutually exclusive nature of either Caspase 9 or Smac binding to the BIR3 pocket.
# Assays are performed and IC50 values are calculated as follows: […]
# IC50 values are calculated by logarithmic regression analysis of the percentage inhibition of each compound at 4 concentrations (usually 3- or 10-fold dilution series starting at 10 μM). In each experiment, the actual inhibition by reference compound is used for normalization of IC50 values to the basis of an average value of the reference inhibitor: Normalized IC50=measured IC50 average ref. IC50/measured ref. IC50
# Activity determinations of compounds herein using the testing method described herein and as are well known in the art, are used with the following test compounds of formula (I). […] “Activity” as used herein is defined as having IC50 values for IAP target inhibition of less than 10 μM. Specifically, in the table:
# IC50 values for Series B compounds are provided for XIAP. Assays are performed as described above using methods well known in the art.
# [1] = Series A compounds, Table 2, read-out: XIAP IC50
# T1 sequence (P98170 248-358 limits assumed, species assumed): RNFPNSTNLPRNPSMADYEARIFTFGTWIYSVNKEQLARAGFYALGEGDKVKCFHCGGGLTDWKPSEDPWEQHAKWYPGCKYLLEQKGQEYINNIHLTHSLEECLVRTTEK
IC50 [1],Compound,IC50
< 10 µM,"CN[C@@H](C)C(=O)N[C@H](C(=O)N1CCN(S(=O)(=O)CCC(F)(F)F)C[C@H]1C(=O)NC1CCCc2ccccc21)C(C)C (stereo partly drawn) [Compound 26, (S)-1-[(S)-3-Methyl-2-((S)-2-methylamino-propionylamino)-butyryl]-4-(3,3,3-trifluoro-propane-1-sulfonyl)-piperazine-2-carboxylic acid (1,2,3,4-tetrahydro-naphthalen-1-yl)-amide]",–
< 10 µM,"CN[C@@H](C)C(=O)N[C@H](C(=O)N1CCN(C(=O)c2ccc(NC(C)=O)cc2)C[C@H]1C(=O)NC1CCCc2ccccc21)C(C)C (stereo partly drawn) [Compound 27, (S)-4-(4-Acetylamino-benzoyl)-1-[(S)-3-methyl-2-((S)-2-methylamino-propionylamino)-butyryl]-piperazine-2-carboxylic acid (1,2,3,4-tetrahydro-naphthalen-1-yl)-amide]",–
< 10 µM,"CN[C@@H](C)C(=O)N[C@H](C(=O)N1CCN(S(C)(=O)=O)C[C@H]1C(=O)NC1CCCc2ccccc21)C(C)C (stereo partly drawn) [Compound 30, (S)-4-Methanesulfonyl-1-[(S)-3-methyl-2-((S)-2-methylamino-propionylamino)-butyryl]-piperazine-2-carboxylic acid (1,2,3,4-tetrahydro-naphthalen-1-yl)-amide]",–
< 10 µM,"CCN1CCN(C(=O)[C@@H](NC(=O)[C@H](C)NC)C(C)C)[C@H](C(=O)NC2CCCc3ccccc32)C1 (stereo partly drawn) [Compound 32, (S)-4-Ethyl-1-[(S)-3-methyl-2-((S)-2-methylamino-propionylamino)-butyryl]-piperazine-2-carboxylic acid (1,2,3,4-tetrahydro-naphthalen-1-yl)-amide]",–
< 10 µM,"CN[C@@H](C)C(=O)N[C@H](C(=O)N1CCN(S(=O)(=O)c2ccc(F)cc2)C[C@H]1C(=O)NC1CCCc2ccccc21)C(C)C (stereo partly drawn) [Compound 35, (S)-4-(4-Fluoro-benzenesulfonyl)-1-[(S)-3-methyl-2-((S)-2-methylamino-propionylamino)-butyryl]-piperazine-2-carboxylic acid (1,2,3,4-tetrahydro-naphthalen-1-yl)-amide]",–
< 10 µM,"CN[C@@H](C)C(=O)N[C@H](C(=O)N1CCN(Cc2ccccc2OC)C[C@H]1C(=O)NC1CCCc2ccccc21)C(C)C (stereo partly drawn) [Compound 37, (S)-4-(2-Methoxy-benzyl)-1-[(S)-3-methyl-2-((S)-2-methylamino-propionylamino)-butyryl]-piperazine-2-carboxylic acid (1,2,3,4-tetrahydro-naphthalen-1-yl)-amide]",–
< 10 µM,"CN[C@@H](C)C(=O)N[C@H](C(=O)N1CCN(C(=O)Nc2ccc(F)cc2)C[C@H]1C(=O)NC1CCCc2ccccc21)C(C)C (stereo partly drawn) [Compound 40, (S)-4-[(S)-3-Methyl-2-((S)-2-methylamino-propionylamino)-butyryl]-piperazine-1,3-dicarboxylic acid 1-[(4-fluoro-phenyl)-amide] 3-[(1,2,3,4-tetrahydro-naphthalen-1-yl)-amide]]",–
< 10 µM,"CN[C@@H](C)C(=O)N[C@H](C(=O)N1CCN(C(=O)Nc2ccccc2)C[C@H]1C(=O)NC1CCCc2ccccc21)C(C)C (stereo partly drawn) [Compound 41, (S)-4-[(S)-3-Methyl-2-((S)-2-methylamino-propionylamino)-butyryl]-piperazine-1,3-dicarboxylic acid 1-phenylamide 3-[(1,2,3,4-tetrahydro-naphthalen-1-yl)-amide]]",–
< 10 µM,"CN[C@@H](C)C(=O)N[C@H](C(=O)N1CCN(S(=O)(=O)c2sccc2-c2ccno2)C[C@H]1C(=O)NC1CCCc2ccccc21)C(C)C (stereo partly drawn) [Compound 42, (S)-4-(3-Isoxazol-5-yl-thiophene-2-sulfonyl)-1-[(S)-3-methyl-2-((S)-2-methylamino-propionylamino)-butyryl]-piperazine-2-carboxylic acid (1,2,3,4-tetrahydro-naphthalen-1-yl)-amide]",–
< 10 µM,"CN[C@@H](C)C(=O)N[C@H](C(=O)N1CCN(Cc2ccc(C#N)cc2)C[C@H]1C(=O)NC1CCCc2ccccc21)C(C)C (stereo partly drawn) [Compound 43, (S)-4-(4-Cyano-benzyl)-1-[(S)-3-methyl-2-((S)-2-methylamino-propionylamino)-butyryl]-piperazine-2-carboxylic acid (1,2,3,4-tetrahydro-naphthalen-1-yl)-amide]",–
< 10 µM,"CN[C@@H](C)C(=O)N[C@H](C(=O)N1CCN(c2ccc(F)cc2)C[C@H]1C(=O)NC1CCCc2ccccc21)C(C)C (stereo partly drawn) [Compound 44, (S)-4-(4-Fluoro-phenyl)-1-[(S)-3-methyl-2-((S)-2-methylamino-propionylamino)-butyryl]-piperazine-2-carboxylic acid (1,2,3,4-tetrahydro-naphthalen-1-yl)-amide]",–
< 10 µM,"CN[C@@H](C)C(=O)N[C@H](C(=O)N1CCN(Cc2ccccc2Cl)C[C@H]1C(=O)NC1CCCc2ccccc21)C(C)C (stereo partly drawn) [Compound 45, (S)-4-(2-Chloro-benzyl)-1-[(S)-3-methyl-2-((S)-2-methylamino-propionylamino)-butyryl]-piperazine-2-carboxylic acid (1,2,3,4-tetrahydro-naphthalen-1-yl)-amide]",–
< 10 µM,"CN[C@@H](C)C(=O)N[C@H](C(=O)N1CCN(CCc2ccccc2)C[C@H]1C(=O)NC1CCCc2ccccc21)C(C)C (stereo partly drawn) [Compound 46, (S)-1-[(S)-3-Methyl-2-((S)-2-methylamino-propionylamino)-butyryl]-4-phenethyl-piperazine-2-carboxylic acid (1,2,3,4-tetrahydro-naphthalen-1-yl)-amide]",–

# More lines, now with the values behind:
Compound,IC50 [1],IC50
"CN[C@@H](C)C(=O)N[C@H](C(=O)N1CCN(CCC(C)C)C[C@H]1C(=O)NC1CCCc2ccccc21)C(C)C (stereo partly drawn) [Compound 24, (S)-4-(3-Methyl-butyl)-1-[(S)-3-methyl-2-((S)-2-methylamino-propionylamino)-butyryl]-piperazine-2-carboxylic acid (1,2,3,4-tetrahydro-naphthalen-1-yl)-amide]",< 10 µM,–
"CCCN1CCN(C(=O)[C@@H](NC(=O)[C@H](C)NC)C(C)C)[C@H](C(=O)NC2CCCc3ccccc32)C1 (stereo partly drawn) [Compound 25, (S)-1-[(S)-3-Methyl-2-((S)-2-methylamino-propionylamino)-butyryl]-4-propyl-piperazine-2-carboxylic acid (1,2,3,4-tetrahydro-naphthalen-1-yl)-amide]",< 10 µM,–
"CN[C@@H](C)C(=O)N[C@H](C(=O)N1CCN(C(=O)NC2CCCC2)C[C@H]1C(=O)NC1CCCc2ccccc21)C(C)C (stereo partly drawn) [Compound 28, (S)-4-[(S)-3-Methyl-2-((S)-2-methylamino-propionylamino)-butyryl]-piperazine-1,3-dicarboxylic acid 1-cyclopentylamide 3-[(1,2,3,4-tetrahydro-naphthalen-1-yl)-amide]]",< 10 µM,–
"CN[C@@H](C)C(=O)N[C@H](C(=O)N1CCN(Cc2cccc(OC)c2)C[C@H]1C(=O)NC1CCCc2ccccc21)C(C)C (stereo partly drawn) [Compound 29, (S)-4-(3-Methoxy-benzyl)-1-[(S)-3-methyl-2-((S)-2-methylamino-propionylamino)-butyryl]-piperazine-2-carboxylic acid (1,2,3,4-tetrahydro-naphthalen-1-yl)-amide]",< 10 µM,–
"CN[C@@H](C)C(=O)N[C@H](C(=O)N1CCN(C(=O)OCC(C)C)C[C@H]1C(=O)NC1CCCc2ccccc21)C(C)C (stereo partly drawn) [Compound 31, (S)-4-[(S)-3-Methyl-2-((S)-2-methylamino-propionylamino)-butyryl]-3-(1,2,3,4-tetrahydro-naphthalen-1-ylcarbamoyl)-piperazine-1-carboxylic acid isobutyl ester]",< 10 µM,–
"CCCCN1CCN(C(=O)[C@@H](NC(=O)[C@H](C)NC)C(C)C)[C@H](C(=O)NC2CCCc3ccccc32)C1 (stereo partly drawn) [Compound 33, (S)-4-Butyl-1-[(S)-3-methyl-2-((S)-2-methylamino-propionylamino)-butyryl]-piperazine-2-carboxylic acid (1,2,3,4-tetrahydro-naphthalen-1-yl)-amide]",< 10 µM,–
"CN[C@@H](C)C(=O)N[C@H](C(=O)N1CCN(C(=O)Oc2ccc(F)cc2)C[C@H]1C(=O)NC1CCCc2ccccc21)C(C)C (stereo partly drawn) [Compound 34, (S)-4-[(S)-3-Methyl-2-((S)-2-methylamino-propionylamino)-butyryl]-3-(1,2,3,4-tetrahydro-naphthalen-1-ylcarbamoyl)-piperazine-1-carboxylic acid 4-fluoro-phenyl ester]",–,< 10 µM
"CN[C@@H](C)C(=O)N[C@H](C(=O)N1CCN(CC2CC2)C[C@H]1C(=O)NC1CCCc2ccccc21)C(C)C (stereo partly drawn) [Compound 36, (S)-4-Cyclopropylmethyl-1-[(S)-3-methyl-2-((S)-2-methylamino-propionylamino)-butyryl]-piperazine-2-carboxylic acid (1,2,3,4-tetrahydro-naphthalen-1-yl)-amide]",< 10 µM,–
"CN[C@@H](C)C(=O)N[C@H](C(=O)N1CCN(CCOC)C[C@H]1C(=O)NC1CCCc2ccccc21)C(C)C (stereo partly drawn) [Compound 38, (S)-4-(2-Methoxy-ethyl)-1-[(S)-3-methyl-2-((S)-2-methylamino-propionylamino)-butyryl]-piperazine-2-carboxylic acid (1,2,3,4-tetrahydro-naphthalen-1-yl)-amide]",< 10 µM,–
"CN[C@@H](C)C(=O)N[C@H](C(=O)N1CCN(C(=O)NC(C)(C)C)C[C@H]1C(=O)NC1CCCc2ccccc21)C(C)C (stereo partly drawn) [Compound 39, (S)-4-[(S)-3-Methyl-2-((S)-2-methylamino-propionylamino)-butyryl]-piperazine-1,3-dicarboxylic acid 1-tert-butylamide 3-[(1,2,3,4-tetrahydro-naphthalen-1-yl)-amide]]",< 10 µM,–
